Drawing on patent publication US9884818B2, “Sulphamoylpyrrolamide derivatives and the use thereof as medicaments for the treatment of hepatitis B” (Janssen Sciences Ireland UC, priority 2013, dated 2018), this text covers EC50 and CC50 for 25 compounds.

Bounds are passed on as bounds.

As usually defined, the EC50 is the concentration needed to bring the measured effect to its halfway point. Broadly, the CC50 is the concentration that lowers cell viability or growth by half. A higher CC50 goes with better tolerance by the cells.

Data set [1] concerns HBV. As to the kind of experiment: Anti-HBV activity, HepG2.2.15 stable transfected cell line, HBV DNA from secreted virions by realtime PCR. Format: cell-based. The note with it: Hepatitis B virus, HepG2.2.15, 144 h, HepG2.2.15 cells, 6 days of treatment, HBV DNA from secreted virions; read-out: HepG2 2.15 EC50.
Data set [2] concerns HBV. As to the kind of experiment: Anti-HBV activity, HepG2.117 inducibly HBV producing cell line (Tet-off), intracellular HBV DNA by realtime PCR. Format: cell-based. The following applies: Hepatitis B virus, HepG2.117, 72 h, HepG2.117 cells, 3 days of treatment, intracellular HBV DNA; read-out: HepG2 117 EC50.
A short description of data set [3]: Cytotoxicity in HepG2 cells, Resazurin viability assay. The following applies: human, HepG2 cells, HepG2 4 days CC50 (μM), incubated for 4 days, Resazurin assay. A general note: Resazurin is reduced to fluorescent resorufin, in cell work by metabolically active cells.

With `Cn1cc(S(=O)(=O)NC(C)(C)C)c(F)c1C(=O)Nc1ccc(F)c(F)c1F` [Compound 213, 4-(tert-Butylsulfamoyl)-3-fluoro-1-methyl-N-(2,3,4-trifluorophenyl)-1H-pyrrole-2-carboxamide], the EC50 in data set [1] was determined as 210 nM; in data set [2] it was 310 nM. In addition, the CC50 at 4 days in data set [3] was greater than 25 µM.
The corresponding values for `Cn1cc(S(=O)(=O)NC(C)(C)C)c(F)c1C(=O)Nc1ccc(F)c(C#N)c1` [Compound 214, 4-(tert-Butylsulfamoyl)-N-(3-cyano-4-fluorophenyl)-3-fluoro-1-methyl-1H-pyrrole-2-carboxamide] are 60 nM, 20 nM and greater than 25 µM.
For `Cn1cc(S(=O)(=O)NC2(C)COC2)c(F)c1C(=O)Nc1ccc(F)c(Cl)c1F` [Compound 215, N-(3-Chloro-2,4-difluorophenyl)-3-fluoro-1-methyl-4-[(3-methyloxetan-3-yl)sulfamoyl]-1H-pyrrole-2-carboxamide], the EC50 was 20 nM in data set [1] and 10 nM in data set [2]. This compound also registered a CC50 at 4 days in data set [3] greater than 25 µM.
The corresponding values for `CC(C)NS(=O)(=O)c1cn(C)c(C(=O)Nc2ccc(F)c(C#N)c2)c1C#N` [Compound 216, 3-Cyano-N-(3-cyano-4-fluorophenyl)-1-methyl-4-[(1-methylethyl)sulfamoyl]-1H-pyrrole-2-carboxamide] are 180 nM, 460 nM and greater than 25 µM.
Take `C[C@@H](NS(=O)(=O)c1cn(C)c(C(=O)Nc2ccc(F)c(F)c2)c1Cl)C(F)(F)F` [Compound 217, 3-Chloro-N-(3,4-difluorophenyl)-1-methyl-4-{[(1R)-2,2,2-trifluoro-1-methylethyl]sulfamoyl}-1H-pyrrole-2-carboxamide]: the EC50 in data set [1] and in data set [2] was 5 nM each time. The compound further had a CC50 at 4 days in data set [3] greater than 25 µM.
In the case of `C[C@@H](NS(=O)(=O)c1cn(C)c(C(=O)Nc2ccc(F)c(Cl)c2F)c1Cl)C(F)(F)F` [Compound 218, 3-Chloro-N-(3-chloro-2,4-difluorophenyl)-1-methyl-4-{[(1R)-2,2,2-trifluoro-1-methylethyl]sulfamoyl}-1H-pyrrole-2-carboxamide], the EC50 in data set [1] came out at 9 nM; in data set [2], 7 nM. The CC50 at 4 days in data set [3] is greater than 25 µM.
For `Cn1cc(S(=O)(=O)NC2(C(F)(F)F)CCC2)c(Cl)c1C(=O)Nc1ccc(F)c(Cl)c1F` [Compound 219, 3-Chloro-N-(3-chloro-2,4-difluorophenyl)-1-methyl-4-{[1-(trifluoro-methyl)cyclobutyl]sulfamoyl}-1H-pyrrole-2-carboxamide], in that order: 10 nM, 9 nM and greater than 25 µM.
As for `Cn1cc(S(=O)(=O)NC(C)(C)C)c(Cl)c1C(=O)Nc1ccc(F)c(Cl)c1` [Compound 220, 4-(tert-Butylsulfamoyl)-3-chloro-N-(3-chloro-4-fluorophenyl)-1-methyl-1H-pyrrole-2-carboxamide], the EC50 is 100 nM in data set [1] and 40 nM in data set [2]. In data set [3], this compound registered a CC50 at 4 days greater than 25 µM.
As for `Cn1cc(S(=O)(=O)NC2(C(F)(F)F)CCC2)c(Cl)c1C(=O)Nc1ccc(F)c(C#N)c1` [Compound 221, 3-Chloro-N-(3-cyano-4-fluorophenyl)-1-methyl-4-{[1-(trifluoro-methyl)cyclobutyl]sulfamoyl}-1H-pyrrole-2-carboxamide], the EC50 in data set [1] was determined as 7 nM; in data set [2], 6 nM. The CC50 at 4 days in data set [3] is greater than 25 µM.
For `C[C@@H](NS(=O)(=O)c1cn(C)c(C(=O)Nc2ccc(F)c(Cl)c2)c1Cl)C(F)(F)F` [Compound 222, 3-Chloro-N-(3-chloro-4-fluorophenyl)-1-methyl-4-{[(1R)-2,2,2-trifluoro-1-methylethyl]sulfamoyl}-1H-pyrrole-2-carboxamide], in that order: 4 nM, 9 nM and greater than 25 µM.
`Cn1cc(S(=O)(=O)NC(C)(C)C)c(Cl)c1C(=O)Nc1ccc(F)c(F)c1` [Compound 223, 4-(tert-Butylsulfamoyl)-3-chloro-N-(3,4-difluorophenyl)-1-methyl-1H-pyrrole-2-carboxamide]: the values for the EC50 in data set [1] and in data set [2] were 120 nM and 90 nM, respectively. Also, in data set [3], the CC50 at 4 days was greater than 25 µM.
Regarding `Cn1cc(S(=O)(=O)NC(C)(C)C)c(Cl)c1C(=O)Nc1ccc(F)c(Cl)c1F` [Compound 224, 4-(tert-Butylsulfamoyl)-3-chloro-N-(3-chloro-2,4-difluorophenyl)-1-methyl-1H-pyrrole-2-carboxamide], the figures for the EC50 in data set [1] and in data set [2] were 220 nM and 260 nM, respectively. Moreover, the CC50 at 4 days in data set [3] is greater than 25 µM.
`C[C@H](NS(=O)(=O)c1cn(C)c(C(=O)Nc2ccc(F)c(C#N)c2)c1Cl)C(F)(F)F` [Compound 225, 3-Chloro-N-(3-cyano-4-fluorophenyl)-1-methyl-4-{[(1S)-2,2,2-trifluoro-1-methylethyl]sulfamoyl}-1H-pyrrole-2-carboxamide]: the concentration giving a half-maximal response (EC50) in data set [1] and in data set [2] was 70 nM each time. In data set [3], this compound returned a CC50 at 4 days greater than 25 µM.
Turning to `Cn1cc(S(=O)(=O)NC(C)(C)C)c(Cl)c1C(=O)Nc1ccc(F)c(C#N)c1` [Compound 226, 4-(tert-Butylsulfamoyl)-3-chloro-N-(3-cyano-4-fluorophenyl)-1-methyl-1H-pyrrole-2-carboxamide], the values for the EC50 in data set [1] and in data set [2] were 190 nM and 210 nM, respectively. In addition, the CC50 at 4 days in data set [3] was greater than 25 µM.
As for `Cn1cc(S(=O)(=O)NC2(C(F)(F)F)CC2)cc1C(=O)Nc1ccc(F)c(C#N)c1` [Compound 227, N-(3-Cyano-4-fluorophenyl)-1-methyl-4-{[1-(trifluoromethyl)cyclopropyl]sulfamoyl}-1H-pyrrole-2-carboxamide], the EC50 in data set [1] was 20 nM; in data set [2] it was 40 nM. The same compound yielded a CC50 at 4 days in data set [3] greater than 25 µM.
For the compound `C[C@@H](NS(=O)(=O)c1cn(C)c(C(=O)Nc2ccc(F)c(F)c2)c1F)C(F)(F)F` [Compound 229, N-(3,4-Difluorophenyl)-3-fluoro-1-methyl-4-{[(1R)-2,2,2-trifluoro-1-methylethyl]sulfamoyl}-1H-pyrrole-2-carboxamide], the concentration giving a half-maximal response (EC50) in data set [1] and in data set [2] was 4 nM each time. The compound also yielded a CC50 at 4 days in data set [3] greater than 25 µM.
Take `CC(C)NS(=O)(=O)c1cn(C)c(C(=O)Nc2ccc(F)c(Br)c2)c1F` [Compound 230, N-(3-Bromo-4-fluorophenyl)-3-fluoro-1-methyl-4-[(1-methylethyl)sulfamoyl]-1H-pyrrole-2-carboxamide]: the EC50 in data set [1] was determined as 8 nM; in data set [2], 30 nM. For the same compound, the CC50 at 4 days in data set [3] was greater than 25 µM.
As to `CC(C)NS(=O)(=O)c1cn(C)c(C(=O)Nc2ccc(F)c(C#N)c2F)c1F` [Compound 231, N-(3-Cyano-2,4-difluorophenyl)-3-fluoro-1-methyl-4-[(1-methyl-ethyl)sulfamoyl]-1H-pyrrole-2-carboxamide], the EC50 in data set [1] was 40 nM; in data set [2], 30 nM. The same compound showed a CC50 at 4 days in data set [3] greater than 25 µM.
On to `CC(C)NS(=O)(=O)c1cn(C)c(C(=O)Nc2ccc(F)c(F)c2)c1F` [Compound 232, N-(3,4-Difluorophenyl)-3-fluoro-1-methyl-4-[(1-methylethyl)sulfamoyl]-1H-pyrrole-2-carboxamide], for which the EC50 in data set [1] and in data set [2] was 20 nM in each case. This compound displayed a CC50 at 4 days in data set [3] greater than 25 µM.
For `CC(C)NS(=O)(=O)c1cn(C)c(C(=O)Nc2ccc(F)c(F)c2F)c1F` [Compound 233, 3-Fluoro-1-methyl-4-[(1-methylethyl)sulfamoyl]-N-(2,3,4-trifluorophenyl)-1H-pyrrole-2-carboxamide], the EC50 is 90 nM in data set [1] and 160 nM in data set [2]. Moreover, in data set [3], the CC50 at 4 days is greater than 25 µM.
For `CC(C)NS(=O)(=O)c1cn(C)c(C(=O)Nc2ccc(F)c(Cl)c2F)c1F` [Compound 234, N-(3-Chloro-2,4-difluorophenyl)-3-fluoro-1-methyl-4-[(1-methyl-ethyl)sulfamoyl]-1H-pyrrole-2-carboxamide], in that order: 20 nM, 30 nM and greater than 25 µM.
In the case of `CC(C)NS(=O)(=O)c1cn(C)c(C(=O)Nc2ccc(F)c(Cl)c2)c1F` [Compound 235, N-(3-Chloro-4-fluorophenyl)-3-fluoro-1-methyl-4-[(1-methylethyl)sulfamoyl]-1H-pyrrole-2-carboxamide], the EC50 in data set [1] and in data set [2] was 10 nM each time. The same compound registered a 50% cytotoxic concentration (CC50) at 4 days in data set [3] greater than 25 µM.
With `Cn1cc(S(=O)(=O)NC(C)(C)C(F)(F)F)cc1C(=O)Nc1ccc(F)c(C#N)c1` [Compound 237, N-(3-Cyano-4-fluorophenyl)-1-methyl-4-[(2,2,2-trifluoro-1,1-di-methylethyl)sulfamoyl]-1H-pyrrole-2-carboxamide], the EC50 in data set [1] is 80 nM; in data set [2] it was 100 nM. In addition, the CC50 at 4 days in data set [3] is greater than 25 µM.
For `CC(CC(F)(F)F)NS(=O)(=O)c1cc(C(=O)Nc2ccc(F)c(C#N)c2)n(C)c1` (stereo not drawn) [Compound 238, N-(3-Cyano-4-fluorophenyl)-1-methyl-4-[(3,3,3-trifluoro-1-methyl-propyl)sulfamoyl]-1H-pyrrole-2-carboxamide], in that order: 100 nM, 110 nM and greater than 25 µM.
With `CC[C@H](NS(=O)(=O)c1cc(C(=O)Nc2ccc(F)c(C#N)c2)n(C)c1)C(F)(F)F` [Compound 239, N-(3-Cyano-4-fluorophenyl)-1-methyl-4-{[(1S)-1-(trifluoromethyl)-propyl]sulfamoyl}-1H-pyrrole-2-carboxamide], the concentration for a half-maximal effect (EC50) amounted to 20 nM in data set [1] and 10 nM in data set [2]. The same compound returned a CC50 at 4 days in data set [3] greater than 25 µM.
